Measurements: ChEMBL document CHEMBL5500393, “Discovery and Optimization of Novel SaFabI Inhibitors as Specific Therapeutic Agents for MRSA Infection” (J Med Chem, 2024)
Converted amounts (≈) assume the structure as drawn. The source made the active and inactive calls. The rule behind the calls is not given here.

What was measured:
[1] = Cytotoxicity against HEK293 cells assessed as survival rate at 800 uM measured after 48 hrs by CCK-8 method relative to control; assay type: toxicity, cell-based; settings: human, read-out: Survival
[2] = Hemolytic activity in sheep erythrocytes assessed as hemolysis at 128 ug/ml incubated for 1 hr by microplate reader based analysis relative to control; assay type: toxicity, cell-based, Ovis aries, Erythrocyte; settings: at 128 µg/mL, read-out: Activity
Cell membrane [3] = test: Induction of cell membrane damage in methicillin-resistant Staphylococcus aureus ATCC33591 assessed as broken cell surface at 1 times MIC measured after 30 mins by TEM analysis; assay type: cell membranes
Staphylococcus aureus [4] = test: Antimicrobial activity against Staphylococcus aureus RN4220 harbouring pCM-sfgfp::fabi (promoter-sarA) measured after 24 hrs by CLSI protocol based microdilution method; assay type: functional
Staphylococcus aureus [5] = test: Antimicrobial activity against […] Staphylococcus aureus ATCC33591 assessed as reduction in lipid content at 8 times MIC measured after 4 hrs by microplate reader based analysis; assay type: functional, organism-based
[6] = Acute toxicity in female BALB/c mouse assessed as effect on heart at 800 mg/kg, po measured after 14 days by H and E staining based analysis; assay type: organism-based; settings: in vivo, 336 h, time 14 day
Staphylococcus aureus [7] = test: Antimicrobial activity against methicillin-susceptible Staphylococcus aureus ATCC25923 measured after 24 hrs by CLSI protocol based microdilution method; assay type: functional
Staphylococcus aureus [8] = test: Antimicrobial activity against wild type Staphylococcus aureus RN4220 measured after 24 hrs by CLSI protocol based microdilution method; assay type: functional
[9] = Selectivity index, ratio of HC50 for sheep erythrocytes to MIC for Staphylococcus aureus; assay type: toxicity; settings: read-out: Selectivity Index
Staphylococcus aureus [10] = test: Antimicrobial activity against Staphylococcus aureus RN4220 harbouring pCM-sfgfp::fabi (promoter fabi) measured after 24 hrs by CLSI protocol based microdilution method; assay type: functional
[11] = Clearance in female Sprague-Dawley rat at 5 mg/kg, iv measured upto 24 hrs by LC-MS analysis; assay type: ADME, organism-based; settings: in vivo
[12] = Clearance in female Sprague-Dawley rat at 20 mg/kg, po measured upto 24 hrs by LC-MS analysis; assay type: ADME, organism-based; settings: in vivo
[13] = Hemolytic activity in sheep erythrocytes assessed as hemolysis incubated for 1 hr by microplate reader based analysis; assay type: toxicity, cell-based, Ovis aries, Erythrocyte
HepG2 = test: Cytotoxicity against human HepG2 cells assessed as survival rate at 400 uM measured after 48 hrs by CCK-8 method relative to control; assay type: functional; settings: read-out: Survival
[14] = Acute toxicity in female BALB/c mouse assessed as effect on ALT level in serum at 800 mg/kg, po measured after 14 days; assay type: organism-based; settings: in vivo, 336 h, time 14 day
[15] = Acute toxicity in female BALB/c mouse assessed as effect on body weight at 800 mg/kg, po measured after 14 days; assay type: organism-based; settings: in vivo, 336 h, time 14 day
[16] = Drug concentration in BALB/c mouse plasma at 400 mg/kg, po measured after 1 hr by LC-MS analysis; assay type: ADME, organism-based
[17] = Aqueous solubility of the compound measured after 24 hrs by HPLC analysis; assay type: physicochemical
Pseudomonas aeruginosa = test: Antimicrobial activity against Pseudomonas aeruginosa PAO1 measured after 24 hrs by CLSI protocol based microdilution method; assay type: functional
[18] = Acute toxicity in female BALB/c mouse assessed as effect on liver at 800 mg/kg, po measured after 14 days by H and E staining based analysis; assay type: organism-based; settings: in vivo, 336 h, time 14 day
[19] = Inhibition of N-terminal his 6 tagged Escherichia coli Fabi (1 to 789 residues) expressed in Escherichia coli BL21 incubated for 30 mins in presence of NADH by fluorescence based microplate reader analysis
Staphylococcus aureus [20] = test: Antimicrobial activity against methicillin-susceptible Staphylococcus aureus ATCC29213 measured after 24 hrs by CLSI protocol based microdilution method; assay type: functional
Staphylococcus aureus [21] = test: Bactericidal activity against […] Staphylococcus aureus ATCC33591 measured upto 24 hr by time-kill assay; assay type: functional, organism-based
[22] = Metabolic stability in human liver microsomes assessed as half life at 1 uM measured upto 120 mins in presence of NADPH by LC-MS analysis; assay type: ADME, Microsome
[23] = Acute toxicity in female BALB/c mouse assessed as animal death at 800 mg/kg, po measured after 14 days; assay type: organism-based; settings: in vivo, 336 h, time 14 day
Cell membrane [24] = test: Induction of cell membrane permeability in methicillin-resistant Staphylococcus aureus ATCC33591 assessed as fold increase in fluorescence intensity at 1 times MIC measured after 30 mins by 7-AAD staining based analysis; assay type: cell membranes
[25] = Acute toxicity in female BALB/c mouse assessed as effect on lung at 800 mg/kg, po measured after 14 days by H and E staining based analysis; assay type: organism-based; settings: in vivo, 336 h, time 14 day
Candida albicans = test: Antimicrobial activity against Candida albicans SC5314 measured after 48 hrs by CLSI protocol based microdilution method; assay type: functional
Cell membrane [26] = test: Induction of cell membrane permeability in methicillin-resistant Staphylococcus aureus ATCC33591 assessed as fold increase in fluorescence intensity at 0.5 times MIC measured after 30 mins by Annexin V-FITC staining based analysis; assay type: cell membranes
Staphylococcus aureus [27] = test: Antimicrobial activity against Staphylococcus aureus measured after 24 hrs by CLSI protocol based microdilution method; assay type: functional
[28] = Acute toxicity in female BALB/c mouse assessed as effect on UREA level in serum at 800 mg/kg, po measured after 14 days; assay type: organism-based; settings: in vivo, 336 h, time 14 day
Staphylococcus aureus [29] = test: Bactericidal activity against […] Staphylococcus aureus ATCC33591 assessed as log reduction in bacterial count at 2 times MIC measured within 8 to 12 hrs by time-kill assay; assay type: functional; settings: time 8-12 hrs
[30] = Acute toxicity in female BALB/c mouse assessed as effect on kidney at 800 mg/kg, po measured after 14 days by H and E staining based analysis; assay type: organism-based; settings: in vivo, 336 h, time 14 day
[31] = Oral bioavailability in female Sprague-Dawley rat at 20 mg/kg measured upto 24 hrs by LC-MS analysis; assay type: ADME, organism-based; settings: in vivo
Staphylococcus aureus [32] = test: Antimicrobial activity against […] Staphylococcus aureus NRS271 measured after 24 hrs by CLSI protocol based microdilution method; assay type: functional
[33] = Half life in female Sprague-Dawley rat at 20 mg/kg, po measured upto 24 hrs by LC-MS analysis; assay type: ADME, organism-based; settings: in vivo
[34] = biological target: T1, Enoyl-[acyl-carrier-protein] reductase [NADPH] FabI (Staphylococcus aureus) (UniProt Q6GI75); test: Binding affinity to N-terminal his 6 tagged Staphylococcus aureus Fabi (1 to […] residues) expressed in Escherichia coli BL21 assessed as increase in thermal stability at 10 ug/ml measured after 1 hr by […] assay; settings: dose 10.0 µg/ml
T1 sequence (whole entry): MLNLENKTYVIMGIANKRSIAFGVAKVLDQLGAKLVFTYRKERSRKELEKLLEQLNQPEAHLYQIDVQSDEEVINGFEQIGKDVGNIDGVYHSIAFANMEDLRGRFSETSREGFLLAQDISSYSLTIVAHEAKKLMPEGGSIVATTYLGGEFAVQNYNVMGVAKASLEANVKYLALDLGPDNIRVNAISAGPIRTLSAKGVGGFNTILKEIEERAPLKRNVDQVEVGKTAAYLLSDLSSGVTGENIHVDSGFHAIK

[35] = AUC (0 to t) in female Sprague-Dawley rat at 5 mg/kg, iv measured upto 24 hrs by LC-MS analysis; assay type: ADME, organism-based; settings: in vivo

| SMILES | viability at 48 h, 800 µM [1] [%] | hemolysis at 1 h, 128 ug/ml [2] [%] | Activity (Cell membrane [3]) | MIC (Staphylococcus aureus [4]) [µg/mL] | Activity (Staphylococcus aureus [5]) | Activity [6] | MIC (Staphylococcus aureus [7]) [µg/mL] | MIC (Staphylococcus aureus [8]) [µg/mL] | selectivity ratio [9] | MIC (Staphylococcus aureus [10]) [µg/mL] | clearance [11] [mL/min/kg] | CL/F [12] [mL/min/kg] | HC50 at 1 h [13] [µg/mL] | viability at 400 µM (HepG2) [%] | Activity [14] | Activity [15] | concentration at 1 h [16] [ng/mL] | solubility at 24 h [17] [µg/mL] | MIC (Pseudomonas aeruginosa) [µg/mL] | Activity [18] | other results |
| --- | --- | --- | --- | --- | --- | --- | --- | --- | --- | --- | --- | --- | --- | --- | --- | --- | --- | --- | --- | --- | --- |
| Cc1c(Br)cccc1N1CC(c2nc3ccccc3n2C)CC1=O (stereo unspecified) | > 75 | 5 | Active | > 32 | Active | Non-Toxic | 1 (≈ 2.6 µM) | 2 (≈ 5.2 µM) | > 128 | 32 (≈ 83.3 µM) | 26.7 | 26.7 | > 256 | > 70 | Non-Toxic | Non-Toxic | 24000 | 388 (≈ 1010 µM) | > 32 | Non-Toxic | IC50 [19]: 35.9 nM; MIC (Staphylococcus aureus [20]): 1 µg/mL (≈ 2.6 µM); Activity (Staphylococcus aureus [21]): Dose-Dependent Effect; half-life at 1 µM [22]: 1.06 h; Activity [23]: Non-Toxic; fold change (FC) (Cell membrane [24]): 1.9; Activity [25]: Non-Toxic; MIC (Candida albicans): > 32 µg/mL; fold change (FC) (Cell membrane [26]): 2.1; MIC (Staphylococcus aureus [27]): 1 µg/mL (≈ 2.6 µM); Activity [28]: Non-Toxic; log(activity) (Staphylococcus aureus [29]): 3.2; Activity [30]: Non-Toxic; bioavailability [31]: 86.1%; MIC (Staphylococcus aureus [32]): 2 µg/mL (≈ 5.2 µM); t1/2 [33]: 8.7 h; Activity [34]: Active; AUCt [35]: 3238.8 ng·h/mL |
| COc1c(Br)cccc1N1CC(c2nc3ccccc3n2C)CC1=O (stereo unspecified) | > 65 | 3.4 | Active | > 32 | Active | Non-Toxic | 2 (≈ 5 µM) | 2 (≈ 5 µM) | > 128 | 32 (≈ 79.9 µM) | 36.7 | 86.7 | > 256 | > 70 | Non-Toxic | Non-Toxic | 18100 | 467 (≈ 1170 µM) | > 32 | Non-Toxic | IC50 [19]: 35.9 nM; MIC (Staphylococcus aureus [20]): 1 µg/mL (≈ 2.5 µM); Activity (Staphylococcus aureus [21]): Dose-Dependent Effect; half-life at 1 µM [22]: 0.638 h; Activity [23]: Non-Toxic; fold change (FC) (Cell membrane [24]): 1.8; Activity [25]: Non-Toxic; MIC (Candida albicans): > 32 µg/mL; fold change (FC) (Cell membrane [26]): 1.9; MIC (Staphylococcus aureus [27]): 1 µg/mL (≈ 2.5 µM); Activity [28]: Non-Toxic; log(activity) (Staphylococcus aureus [29]): 2.3; Activity [30]: Non-Toxic; bioavailability [31]: 34.5%; MIC (Staphylococcus aureus [32]): 2 µg/mL (≈ 5 µM); t1/2 [33]: 9.3 h; Activity [34]: Active; AUCt [35]: 2264.4 ng·h/mL |
